Assay results reported in patent publication US20240043415A1, “KCNT1 INHIBITORS AND METHODS OF USE” (Praxis Precision Medicines, Inc., priority 2020, published 2024).

Target: T1, KCNT1 (KNa1.1, Slack) (Homo sapiens, UniProt Q5JUK3)
T1 construct: expressed in transfected cells; host or cells: HEK-TREX (tetracycline-inducible)
T1 sequence (Q5JUK3 1-1230): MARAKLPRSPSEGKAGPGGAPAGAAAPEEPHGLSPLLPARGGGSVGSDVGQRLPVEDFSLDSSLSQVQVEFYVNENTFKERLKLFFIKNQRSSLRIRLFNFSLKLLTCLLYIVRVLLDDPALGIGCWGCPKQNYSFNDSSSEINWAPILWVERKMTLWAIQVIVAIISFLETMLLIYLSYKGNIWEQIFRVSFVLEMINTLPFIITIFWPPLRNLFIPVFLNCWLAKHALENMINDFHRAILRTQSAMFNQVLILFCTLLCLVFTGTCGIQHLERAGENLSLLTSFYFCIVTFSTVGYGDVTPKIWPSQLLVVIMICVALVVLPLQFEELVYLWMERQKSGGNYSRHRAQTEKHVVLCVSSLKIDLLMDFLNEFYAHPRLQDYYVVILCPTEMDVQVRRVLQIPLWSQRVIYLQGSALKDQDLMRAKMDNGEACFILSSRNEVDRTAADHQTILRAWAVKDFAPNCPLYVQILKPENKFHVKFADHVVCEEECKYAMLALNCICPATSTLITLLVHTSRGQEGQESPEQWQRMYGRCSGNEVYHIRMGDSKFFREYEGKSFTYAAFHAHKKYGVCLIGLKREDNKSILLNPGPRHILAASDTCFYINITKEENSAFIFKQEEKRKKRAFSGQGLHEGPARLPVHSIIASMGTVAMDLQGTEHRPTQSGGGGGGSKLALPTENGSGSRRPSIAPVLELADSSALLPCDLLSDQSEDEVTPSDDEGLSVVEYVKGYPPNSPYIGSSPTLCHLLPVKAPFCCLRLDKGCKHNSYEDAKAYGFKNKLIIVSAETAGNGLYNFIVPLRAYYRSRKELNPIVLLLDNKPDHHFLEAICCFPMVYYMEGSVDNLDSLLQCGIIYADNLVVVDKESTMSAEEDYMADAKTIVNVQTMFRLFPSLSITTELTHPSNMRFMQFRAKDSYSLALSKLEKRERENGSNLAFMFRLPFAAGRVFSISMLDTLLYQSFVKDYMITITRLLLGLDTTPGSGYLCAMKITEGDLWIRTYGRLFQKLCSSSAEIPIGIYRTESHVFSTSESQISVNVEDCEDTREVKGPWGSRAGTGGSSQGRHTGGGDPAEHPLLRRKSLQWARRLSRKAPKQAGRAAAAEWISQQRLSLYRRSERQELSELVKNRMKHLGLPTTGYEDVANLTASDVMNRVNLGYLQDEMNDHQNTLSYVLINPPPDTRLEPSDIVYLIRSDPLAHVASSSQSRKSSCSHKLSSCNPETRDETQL
Assay: KCNT1 patch clamp assay (SyncroPatch 384PE, HEK-TREX cell line)
Type: cell-based
Details: tetracycline inducible HEK-TREX cell line, perforated patch, step to 0 mV, room temperature; read-out: KCNT1-WT IC50
Method: Currents were recorded using the SyncroPatch 384PE automated, patch clamp system. Pulse generation and data collection were performed with PatchController384 V1.3.0 and DataController384 V1.2.1 (Nanion Technologies). The access resistance and apparent membrane capacitance were estimated using built-in protocols. Current were recorded in perforated patch mode (10 μM escin) from a population of cells. The cells were lifted, triturated, and resuspended at 800,000 cells/ml. The cells were allowed to recover in the cell hotel prior to experimentation. Currents were recorded at room temperature. […] The extracellular solution was used as the wash, reference and compound delivery solution. […] Escin is made at a 5 mM stock in water, aliquoted, and stored at −20° C. The compound plate was created at 2× concentrated in the extracellular solution. The compound was diluted to 1:2 when added to the recording well. The amount of DMSO in the extracellular solution was held constant at the level used for the highest tested concentration. A holding potential of −80 mV with a 100 ms step to 0 mV was used. […] The average mean current from 3 sweeps was calculated and the % inhibition of each compound was calculated. The % Inhibition as a function of the compound concentration was fit with a Hill equation to derive IC50, slope, min and max parameters.

SMILES: C[C@H](NC(=O)c1cc(C(F)(F)F)nn1C)c1noc(-c2ccnc(C3CC3)c2)n1 [Compound 2a, (S)-N-(1-(5-(2-cyclopropylpyridin-4-yl)-1,2,4-oxadiazol-3-yl)ethyl)-1-methyl-3-(trifluoromethyl)-1H-pyrazole-5-carboxamide]
- IC50: ≤ 1000 nM
